Laboratory results from patent US11505548B2, “Heterocyclic compounds and their use for treatment of helminthic infections and diseases” (Celgene Corporation, priority 2019, dated 2022).

Experiments:
B. pahangi adult worms = experiment: Parasite motility assay, adult B. pahangi; type: cell-based, Brugia pahangi; conditions: in vitro motility, active at compound concentrations below 1 μM
Procedure: Parasite Motility Assays. Adult and microfilariae B. malayi and B. pahangi parasites, harvested from infected jirds, were procured from the NIAID/NIH Filariasis Research Reagent Resource Center (FR3). […] (Athens, Ga.). Adult worms were plated in 24-well plates with 2 mL of Advanced RPMI 1640 medium (Invitrogen) supplemented with 25 mM HEPES, 2 mM L-Glutamine (Invitrogen), 100 U/mL Penicillin (Invitrogen), 100 µg/mL Streptomycin (Invitrogen), […] Amphotericin B solution (Invitrogen), and 5% heat inactivated fetal bovine serum and placed in a 37° C. humidified incubator with 5% CO2. After 24 h, adult worms were selected based upon motility as described below. After scoring for motility, 4-6 highly motile worms were selected for each treatment group and were transferred to new plates. Microfilariae were centrifuged at 5000×g for 5 min, and re-suspended in 2 ml of media. Microfilarial density was determined using a hemocytometer and were plated in a 96-well plate at 80 microfilariae/well with 200 μL of complete media. Treatment groups received compounds (0.1% DMSO) at 1 μM and 100 nM with 0.1% DMSO as a vehicle control. Cultures were incubated at 37° C. in a humidified incubator with 5% CO2. […] The motility of the worms and microfilariae were evaluated every 24 h and analyzed by a one sided unpaired Student's t-test using Microsoft Excel. […]

[1] = tested on: L. sigmodontis microfilariae; experiment: Parasite motility assay, L. sigmodontis microfilariae; type: cell-based, Litomosoides sigmodontis; conditions: in vitro motility, active at compound concentrations below 1 μM
[2] = tested on: L. sigmodontis adult worms; experiment: Parasite motility assay, adult L. sigmodontis; type: cell-based, Litomosoides sigmodontis; conditions: in vitro motility, active at compound concentrations below 1 μM
[3] = tested on: Onchocerca gutturosa Adult Male Worms; experiment: Onchocerciasis in vitro screening model, worm motility score; type: cell-based; conditions: in vitro; Onchocerca gutturosa adult male worms; class A/B/C; read-out: O. gutturosa activity level (IC50 or MED)

Compound	IC50 [3] [nM]	further results
2-(3-(5-isoprop- oxypyridin-2- yl)-1,2,4- thiadiazol-5- ylamino)-N,N- dimethyl-5- (trifluoromethyl) nicotinamide [Compound 250]	500 to 5000	B. pahangi activity against adult filaria (level E) (B. pahangi adult worms): E (activity against adult filaria at compound concentrations below 1 μM (activity level E)); L. sigmodontis activity against microfilaria (level D) [1]: D (activity against microfilaria at compound concentrations below 1 μM (activity level D)); L. sigmodontis activity against adult filaria (level E) [2]: E (activity against adult filaria at compound concentrations below 1 μM (activity level E))
Cc1ccnc(Nc2nsc(-c3ncccc3C)n2)c1 [Compound 305, 5-(3-methyl-pyridin-2-yl)-N-(4-methylpyridin-2-yl)-1,2,4-thiadiazol-3-amine]	< 200	
CC(=O)N(C)c1cc(C(F)(F)F)cnc1Nc1nc(-c2cc(OC3CCOCC3)ccn2)ns1 [Compound 306, N-methyl-N-(2-(3-(4-(tetrahydro-2H-pyran-4-yloxy)pyridin-2-yl)-1,2,4-thiadiazol-5-ylamino)-5-(trifluoromethyl)pyridin-3-yl)acetamide]	< 200	
CN1CCc2cc(-c3nsc(Nc4ncccc4S(=O)(=O)N(C)C)n3)ncc21 [Compound 307, N,N-dimethyl-2-(3-(1-methyl-2,3-dihydro-1H-pyrrolo[2,3-c]pyridin-5-yl)-1,2,4-thiadiazol-5-ylamino) pyridine-3-sulfonamide]	500 to 5000	
CC(C)Oc1ccnc(-c2nsc(Nc3ncccc3S(=O)(=O)N(C)C)n2)c1 [Compound 308, 2-(3-(4-isoprop-oxypyridin-2-yl)-1,2,4-thiadiazol-5-ylamino)-N,N-dimethyl-pyridine-3-sulfonamide]	< 200	
CC(=O)N(C)c1nccnc1Nc1nc(-c2cc3c(cn2)N(C(C)C)CC3)ns1 [Compound 309, N-(3-(3-(1-isopropyl-2,3-dihydro-1H-pyrrolo[2,3-c]pyridin-5-yl)-1,2,4-thiadiazol-5-ylamino)pyrazin-2-yl)-N-methylacetamide]	< 200	
CC(=O)N(C)c1cccnc1Nc1nc(-c2cc3c(cn2)CN(C(C)C)C3)ns1 [Compound 310, N-(2-(3-(2-isopropyl-2,3-dihydro-1H-pyrrolo[3,4-c]pyridin-6-yl)-1,2,4-thiadiazol-5-ylamino)pyridin-3-yl)-N-methylacetamide]	500 to 5000	
CC(=O)N(C)c1cc(C(F)(F)F)cnc1Nc1nc(-c2cc3c(cn2)CN(C(C)C)C3)ns1 [Compound 311, N-(2-(3-(2-isopropyl-2,3-dihydro-1H-pyrrolo[3,4-c]pyridin-6-yl)-1,2,4-thiadiazol-5-ylamino)-5-(trifluoromethyl)pyridin-3-yl)-N-methylacetamide]	< 200	
CC(C)Oc1ccc(-c2nsc(Nc3ncc(C(F)(F)F)cc3N3CCCC3=O)n2)nc1 [Compound 312, 1-(2-(3-(5-isopropoxypyridin-2-yl)-1,2,4-thiadiazol-5-ylamino)-5-(trifluoromethyl)pyridin-3-yl)pyrrolidin-2-one]	500 to 5000	
CC(=O)N(C)c1nccnc1Nc1nc(-c2ccc(OC(C)C)cn2)ns1 [Compound 313, N-(3-(3-(5-isopropoxypyridin-2-yl)-1,2,4-thiadiazol-5-ylamino)pyrazin-2-yl)-N-methylacetamide]	500 to 5000	
CC(=O)N(C)c1cc(C(F)(F)F)cnc1Nc1nc(-c2ccc(OC(C)C)nn2)ns1 [Compound 314, N-(2-(3-(6-isopropoxy-pyridazin-3-yl)-1,2,4-thiadiazol-5-ylamino)-5-(trifluoromethyl)pyridin-3-yl)-N-methylacetamide]	500 to 5000	
Cc1cccnc1Nc1nc(-c2ncc(OC(C)C)cn2)ns1 [Compound 315, 3-(5-isopropoxy-pyrimidin-2-yl)-N-(3-methylpyridin-2-yl)-1,2,4-thiadiazol-5-amine]	500 to 5000	
CC(=O)N(C)c1cc(C(F)(F)F)cnc1Nc1nc(-c2ncc(OC(C)C)cn2)ns1 [Compound 316, N-(2-(3-(5-isopropoxy-pyrimidin-2-yl)-1,2,4-thiadiazol-5-ylamino)-5-(trifluoromethyl)pyridin-3-yl)-N-methylacetamide]	500 to 5000	
CC(=O)N(C)c1cc(C(F)(F)F)cnc1Nc1nc(-c2cc(OC(C)C)ccn2)ns1 [Compound 317, N-(2-(3-(4-isopropoxypyridin-2-yl)-1,2,4-thiadiazol-5-ylamino)-5-(trifluoromethyl)pyridin-3-yl)-N-methylacetamide]	< 200	
COc1ccnc(-c2nsc(Nc3ncc(C(F)(F)F)cc3N(C)C(C)=O)n2)c1 [Compound 318, N-(2-(3-(4-methoxypyridin-2-yl)-1,2,4-thiadiazol-5-ylamino)-5-(trifluoromethyl)pyridin-3-yl)-N-methylacetamide]	< 200	
CC(=O)Nc1ncc(C(F)(F)F)cc1N(C)c1nnc(-c2ccc(OC(C)C)cn2)o1 [Compound 319, N-(3-((5-(5-isopropoxypyridin-2-yl)-1,3,4-oxadiazol-2-yl)(methyl)amino)-5-(trifluoromethyl)pyridin-2-yl)acetamide]	500 to 5000	
CC(C)Oc1cnc(-c2nsc(Nc3ncccc3S(=O)(=O)N(C)C)n2)cc1C(F)(F)F [Compound 320, 2-(3-(5-isopropoxy-4-(trifluoromethyl)pyridin-2-yl)-1,2,4-thiadiazol-5-ylamino)-N,N-dimethyl-pyridine-3-sulfonamide]	500 to 5000	
CC(C)Oc1ccc(-c2nsc(Nc3ncccc3S(=O)(=O)N(C)C)n2)nc1 [Compound 321, 2-(3-(5-isoprop-oxypyridin-2-yl)-1,2,4-thiadiazol-5-ylamino)-N,N-dimethyl-pyridine-3-sulfonamide]	500 to 5000	
CC(C)c1cnc(Nc2nc(-c3cc4c(cn3)N(C)CC4)ns2)cc1C(F)(F)F [Compound 322, N-(5-isopropyl-4-(trifluoromethyl)pyridin-2-yl)-3-(1-methyl-2,3-dihydro-1H-pyrrolo[2,3-c]pyridin-5-yl)-1,2,4-thiadiazol-5-amine]	< 200	
CC(C)c1cnc(Nc2nc(-c3cc4c(cn3)N(C)CC4)ns2)c(C(F)(F)F)c1 [Compound 323, N-(5-isopropyl-3-(trifluoromethyl)pyridin-2-yl)-3-(1-methyl-2,3-dihydro-1H-pyrrolo[2,3-c]pyridin-5-yl)-1,2,4-thiadiazol-5-amine]	< 200	
Cc1cc(C(F)(F)F)cnc1Nc1nc(-c2cc3c(cn2)N(C)CC3)ns1 [Compound 324, 3-(1-methyl-2,3-dihydro-1H-pyrrolo[2,3-c]pyridin-5-yl)-N-(3-methyl-5-(trifluoromethyl)pyridin-2-yl)-1,2,4-thiadiazol-5-amine]	< 200	
CC(=O)N(C)c1cc(C(F)(F)F)cnc1Nc1nc(-c2ccccn2)ns1 [Compound 325, N-methyl-N-(2-(3-(pyridin-2-yl)-1,2,4-thiadiazol-5-ylamino)-5-(trifluoromethyl)pyridin-3-yl)acetamide]	< 200	
CC(=O)N(C)c1cccnc1Nc1nc(-c2ccc(OC3COC3)cn2)ns1 [Compound 326, N-methyl-N-(2-(3-(5-(oxetan-3-yloxy)pyridin-2-yl)-1,2,4-thiadiazol-5-ylamino)pyridin-3-yl)acetamide]	500 to 5000	
CC(C)OC(=O)c1cccnc1Nc1nc(-c2ccc(OC(C)C)cn2)ns1 [Compound 327, isopropyl 2-(3-(5-isopropoxypyridin-2-yl)-1,2,4-thiadiazol-5-ylamino)nicotinate]	500 to 5000	
CC(C)Oc1ccc(-c2nsc(Nc3ncc(C(F)(F)F)cc3C(=O)N3CCCC3)n2)nc1 [Compound 328, (2-(3-(5-isoprop-oxypyridin-2-yl)-1,2,4-thiadiazol-5-ylamino)-5-(trifluoromethyl)pyridin-3-yl)(pyrrolidin-l-yl)methanone]	500 to 5000	
CC(=O)N(C)c1cc(C(F)(F)F)cnc1Nc1nc(-c2ccc(OC3COC3)cn2)ns1 [Compound 329, N-methyl-N-(2-(3-(5-(oxetan-3-yloxy)pyridin-2-yl)-1,2,4-thiadiazol-5-ylamino)-5-(trifluoromethyl)pyridin-3-yl)acetamide]	500 to 5000	
CC(=O)N(C)c1cc(C(F)F)cnc1Nc1nc(-c2cc3c(cn2)N(C)CC3)ns1 [Compound 330, N-(5-(difluoro-methyl)-2-(3-(1-methyl-2,3-dihydro-1H-pyrrolo[2,3-c]pyridin-5-yl)-1,2,4-thiadiazol-5-ylamino)pyridin-3-yl)-N-methylacetamide]	500 to 5000	
